“Also recorded” adds a separate entry of the source.
Key:
[1] = molecular target: T1, MBP-CASP2(32-165)-L150P/Y151H (Homo sapiens, UniProt P42575, L150P/Y151H); experiment: MicroScale Thermophoresis binding to L150P/Y151H mutant pro-domain; conditions: MST, L150P/Y151H double mutant
T1 construct: cDNAs encoding BID and caspase-2 pro-domain (residues 32–165) were constructed into modified pET vectors; made in house; host or cells: E. coli BL21 (DE3)
T1 sequence (P42575 32-165 L150P/Y151H): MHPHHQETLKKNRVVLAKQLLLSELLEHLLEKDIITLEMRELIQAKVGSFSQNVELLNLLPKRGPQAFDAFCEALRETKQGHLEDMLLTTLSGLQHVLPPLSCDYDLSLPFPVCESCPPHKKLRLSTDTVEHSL
Excerpt: The contrasting responses of the two caspases to HUHS015 might result from sequence differences in the interdomain linker in the pro-domain. […] However, replacing L150 and Y151 in human caspase-2 with mouse P150 and H151, respectively, abolished HUHS015-induced caspase-2 activation as well as the cell death response (Fig. 4D). […] The importance of L150/Y151 for human caspase-2 activation by HUHS015 indicates these residues or the associated structure are likely involved in binding to the compound agonist.
MicroScale thermophoresis (MST) experiments were carried out at 25°C in the PBST Buffer (PBS with 0.05%, v/v Tween 20) by using a Monolith 2020 (TNG) (MM-208). […] The temperature-induced changes in fluorescence intensity of each sample in the capillary thermophoresis tubes were recorded by the Monolith instrument. The data were analyzed using the program provided by the manufacturer. The binding constant (KD) was calculated directly from the fitting.
Relative fluorescence (%) […]
(A) HUHS015-36 activates caspase-2 independently of PIDDosome. […] A TP-based cell viability is expressed as mean±s.d. from three technical replicates.
Immunoblotting detecting caspase-2 and BID processing is shown. […] A TP-based cell viability is expressed as mean±s.d. from three technical replicates. […]

EL4 cells = experiment: Cell death and caspase-2 processing in EL4 cells; format: cell-based, mouse; conditions: EL4, 8 h
Excerpt: We further examined whether HUHS015-derived compounds could activate endogenous caspase-2 in human cells. […] Complementing the CASP2^−/− Jurkat cells with exogenous caspase-2 restored HUHS015-36-induced apoptosis, in which caspase-2 was expectedly processed (Fig. 5A and 5B). We also profiled caspase-2 expression in a panel of 10 mouse tumor cell lines and observed highly variable expression levels (Fig. 5C). […] In B16-F10 (melanoma), LLC1 (Lewis lung carcinoma), MB49 (bladder carcinoma), KPC (pancreatic ductal adenocarcinoma), and 4T1 (mammary carcinoma) cells, caspase-2 was expressed at much lower levels (Fig. 5C). In contrast, EMT6 (mammary carcinoma), EL4 (T lymphoblast), and Hepa1-6 (hepatoma) feature robust caspase-2 expression, much higher than in Jurkat cells (Fig. 5C).
Figure 5. HUHS015-36 activates endogenous caspase-2 to induce apoptosis in Jurkat cells but not mouse cells. (A and B) HUHS015-36 activates endogenous caspase-2 and induces apoptosis in human Jurkat cells. […] Lysates of 10 mouse cancer cell lines were analyzed by immunoblotting using indicated antibodies. […] ATP cell viability (A and D) is expressed as mean ± s.d. from three technical replicates. […]
Cell viability was measured by the ATP assay using the CellTiter-Glo® Luminescent Cell Viability Assay kit (Promega).

[2] = system: caspase-2 interdomain linker mutants in HeLa TKO cells; experiment: Cell death and caspase-2 activation in HeLa TKO cells expressing caspase-2 linker mutants; format: cell-based
Excerpt: Figure 4. HUHS015 activates human caspase-2 directly through specific targeting of the interdomain linker of caspase-2. (A) The direct binding between HUHS015-36 and MBP-fused human caspase-2 pro-domain was detected by microscale thermophoresis (MST). MST profiles for raw binding signals and affinity (KD) measurement are shown. The calculated dissociation constant (KD) is expressed as means ± s.d. from two determinations. (B) Sequence alignment of the pro-domain (residues 1–169) of human and mouse caspase-2. CARD domain annotation is shown on top of the sequences. Identical residues are in red background and conserved ones are in red. Numbers of starting residues are indicated on the left. Different residues in the interdomain linker (residues 122–169) were highlighted with green color. (C) HUHS015 activates human but not mouse caspase-2. HeLa TKO cells rescued with human or mouse caspase-2 expression were treated with HUHS015 for the indicated time. ATP-based cell viability and immunoblotting detecting caspase-2 processing are shown. […] ATP-based cell viability in panels (C–E) is expressed as mean ± s.d. from three technical replicates. […] TEXT PRINTED IN THE PICTURE: (A) HUHS015-36: MBP-CASP2(32–165) vs. HUHS015-36: KD (μmol/L): 22.05 ± 6.151; MBP vs. HUHS015-36: KD (μmol/L): Not detected […]

Row | SMILES | KD [1] | caspase-2 processing and cell death (EL4 cells) | caspase-2 activation and cell death ([2]; human caspase-2 with L150 and Y151 replaced by mouse P150 and H151, 5 h) | caspase-2 activation and apoptosis ([2]; mouse caspase-2 with P150 and H151 replaced by L150 and Y151, 5 h)
1 | Cc1cccc2nc(-n3nc4c(c3O)CCCC4)[nH]c12 [HUHS015-36] | Not detected; also recorded: failed to detect confident binding | no caspase-2 processing and cell death were detected | – | –
2 | Cc1ccc2nc(-n3nc(C)c(Cc4ccccc4)c3O)[nH]c2c1 [HUHS015] | – | – | abolished | capable of being activated

Reference: publication PMC11637483, “Dissecting caspase-2-mediated cell death: from intrinsic PIDDosome activation to chemical modulation” (Protein & Cell, 2024)
